Results: US12691124B2, “Methods of controlling and improving brain health” (ICAHN SCHOOL OF MEDICINE AT MOUNT SINAI, priority 2019, dated 2026)

Experiments:
Assay type in all cases: cell-based, mouse
[1] = tested on: primary cortical neurons exposed to glutamate; test: Glutamate excitotoxicity in primary cortical neurons
Description: LDH Assay. LDH activity was measured using the Pierce LDH Cytotoxicity Assay Kit. Culture media was incubated with an equal volume of LDH master mix and incubated for 30 minutes at room temperature in the dark. After, the same volume of stop reagent was added and the absorbance was measured at 490 and 680 nm. Maximum LDH measurements were obtained by adding lysis buffer to release the total amount of LDH in the sample. LDH release is calculated as a percent of the maximum.
Propidium Iodide Assay. Propidium iodide (1 mg/ml, Life Technologies #P3566) was added to each culture well at a final concentration of 0.5 μg/ml. Cultures were incubated for 30 minutes at 37 degrees then washed with PBS. Cells were then fixed with 4% paraformaldehyde in PBS for 15 minutes at room temperature. After fixation, cells were washed with PBS and then mounted using mounting media containing DAPI.
In addition to increasing longevity, rapamycin treatment protects neurons from toxic stimuli such as excessive glutamate. […] Because IBET858 increased neuronal lifespan to the same extent as rapamycin, it was hypothesized that BET inhibition could also induce a protective state in neurons. To test if IBET858 can prevent neuronal death, the neurons were exposed to excitotoxic levels of glutamate, a common in vitro assay that mirrors neuronal death observed in vivo after stroke or neurodegeneration. High levels of glutamate cause a strong influx of calcium into the neuron ultimately leading to necrosis followed by apoptosis.
Neurons were treated with IBET858 for increasing durations (2 h, 24 h, 72 h or 1 week) before stimulation with an excitotoxic amount of glutamate (1 mM) on day 14 when mature synapses fully express glutamate receptors. Chronic but not acute BET inhibition increases neuronal survival in response to glutamate toxicity, as measured by the LDH assay. […] Therefore a 1 week treatment time point was used for all subsequent experiments.

primary cortical neurons [2] = test: Seahorse mitochondrial stress test
Description: Seahorse Mitochondrial Stress Test. In this assay, two fluorescent probes that detect the concentration of oxygen or protons are added to the culture media. Cellular metabolism causes rapid changes in the concentration of these molecules in the media which can be detected by changes in sensor fluorescence. The oxygen consumption rate (OCR) indicates mitochondrial respiration and the extracellular acidification rate (ECAR) is largely due to glycolysis. Certain pathways can be analyzed by the sequential addition of inhibitors to the media and measuring ensuing changes to the OCR and ECAR. First baseline readings are measured to give an understanding of basal metabolic rates. Then the last step of oxidative phosphorylation, the ATP synthase, is inhibited by oligomycin to determine how much oxygen is being used for ATP production. FCCP is next added to decouple the electron transport chain from the ATP synthase by increasing proton permeability of the membrane which drives oxidative phosphorylation to its maximum. Lastly, complex I is inhibited by rotenone to completely shut down mitochondrial respiration. Any oxygen that is consumed after rotenone is due to other cellular processes such as fatty acid metabolism. On the day of the assay, cultures were washed times with artificial CSF (aCSF) [120 mM NaCl, 3.5 mM KCl, 1.3 mM CaCl2, 1 mM MgCl2, 0.4 mM KH2PO4, 5 mM HEPES, 0.4% BSA, 10 mM Sodium-pyruvate, 15 mM Glucose], and incubated at 37° C. without CO2 for one hour prior to assay. Oxygen Consumption rate (OCR) was measured using the Seahorse XFe24 Analyzer (Agilent), under basal conditions and after the sequential addition of […] [carbonyl cyanide p-(trifluoromethoxy) phenylhydrazone], […]. Metrics were calculated according to the following equations. All values were calculated per well and normalized to cell number for each experiment. Each experiment was normalized to the average of all controls across all experiments (n=3) performed.
To understand if this was the case, the major energetic pathway in neurons, mitochondrial respiration, after BET inhibition was assessed using Seahorse technology. […] In addition to lower mitochondrial activity, proton leak which contributes to the production of reactive oxygen species (ROS) is lower after BET inhibition. Because increased ROS levels are detrimental to neuronal health, lower ROS production could also increase neuronal survival after BET inhibition.
Glycolysis also contributes to neuronal metabolism and several key glycolytic metabolites (Fructose 6-phosphate, Glucose-6-phosphate, Phosphoenolpyruvate) were decreased after IBET858. […] Additionally, the decreased maximal responses indicate that this metabolic state is relatively stable.

primary cortical neurons [3] = test: Aβ1-43 oligomer induced neuronal death; conditions: Aβ1-43 oligomers, 1 week pretreatment
Excerpt: While glutamate toxicity is a widely used and clinically relevant assay, there are other factors that contribute to neuronal death in vivo such as lack of oxygen which occurs after stroke or protein aggregates which are observed in many neurodegenerative disorders. To understand if the observed protective effect is specific to glutamate toxicity, neurons were exposed to either hypoxic (1% O2) environments or Aβ1-43 oligomers (FIGS. 10E and 10F).
IBET treatment protects neurons from neurotoxin-induced cell death (FIGS. 22C-22E). Dot plots show the percentage of cells that are propidium iodide negative after different neurotoxic insults when pre-treated with either control or iBET for 1 week. 6 hours and 24 hours after 1 mM glutamate exposure are shown in FIG. 22C; 18 hours, 24 hours, and 48 hours of hypoxia (1% O2) are shown in FIG. 22D; and 48 hours and 72 hours of Aβ1-43 oligomer exposure (10 μM) are shown in FIG. 22E. Two-way repeated measures ANOVA with multiple comparisons, n=3 per group, ***p<0.001. Experiments were repeated a minimum of three times.

SMILES: CC(=O)N1c2ccc(-c3ccc(CN4CCCCC4)cc3)cc2[C@H](Nc2ccccc2)CC1C (stereo in doubt) [IBET858]
- protection from excitotoxicity, IBET858 compared with rapamycin ([1]; 1 week IBET858 1 μM, Rapamycin 20 nM, 1 mM glutamate): as well as rapamycin
- cell death after glutamate exposure, propidium iodide ([1]; 1 week pretreatment, 1 mM glutamate): fewer neurons treated with IBET858 die
- excitotoxicity-induced neuronal death, LDH assay ([1]; 1 week pretreatment, 1 mM glutamate, day 14): almost completely prevents
- excitotoxicity-induced neuronal death, LDH assay ([1]; 72 h pretreatment, 1 mM glutamate): mild protective effect
- neuroprotective phenotype after washout, glutamate exposure ([1]; temporary pretreatment, wash out, 4 days on DMSO, 1 mM glutamate day 14): neuroprotective phenotype that is maintained even in the absence of IBET
- mitochondrial coupling efficiency (primary cortical neurons [2]; 24 h or 1 week IBET858): increased coupling efficiency
- basal glycolysis (extracellular acidification rate) (primary cortical neurons [2]; chronic BET inhibition): slightly decreased
- basal mitochondrial respiration rates (primary cortical neurons [2]; chronic BET inhibition): significantly decreases
- decrease in ATP production (primary cortical neurons [2]; chronic BET inhibition): 50%
- maximum glycolytic rate (primary cortical neurons [2]; chronic BET inhibition): significantly attenuated
- maximum mitochondrial activity (primary cortical neurons [2]; chronic BET inhibition): also decreased
- proton leak (primary cortical neurons [2]; chronic BET inhibition): lower
- loss of neurons due to toxic Aβ oligomers (primary cortical neurons [3]): significantly prevents loss of neurons
